The target of the assay is Autotaxin (Homo sapiens, UniProt Q13822). The experiment in a line: The following assays and their respective methods are carried out with the compounds according to the present invention. […] Those skilled in the art will appreciate that a variety of assay formats may be used to determine the activity of the compounds of this invention.Autotaxin LPC Cascade Assay:Assay Buffer:100 mM Tris-HCl, pH=9500 mM NaCl5 mM MgCl25 mM CaCl20.05% Triton X 100Reagents:Enzyme Source Stock conc Working conc. Final conc. Autotaxin X-Chem 4.6 μM 20 nM 5 nM LPC Sigma L5254 8 mM in assay buffer 400 μM 100 μM Choline Oxidase Sigma C5896 50 U/mL in water 0.8 U/mL 0.1 U/mL HRP Sigma P8375 1000 U/mL in water 8 U/mL 1 U/mL Ampliflu Red Sigma 90101 100 mM in DMSO 400 μM 50 μM. It is filed as […].

pIC50: −log10 of the molar value.

In general, pIC50 refers to the negative decadic logarithm of the IC50, by convention in mol/L. The molecule `CC(C)[C@@H](NC(=O)c1ccc(C#N)c(Cl)c1)C(=O)N1CCC2(CC1)C(=O)N(C)CN2c1ccccc1` showed a negative logarithm of the IC50 (pIC50) of under 6.00.
In the case of `Cc1cccc(C(=O)N(C)[C@@H](C(=O)N2CCC3(CC2)C(=O)N(C)CN3c2ccccc2)C(C)C)c1` it was under 6.00; in that of `CC(C)[C@@H](NC(=O)c1cc(C(F)(F)F)ccc1F)C(=O)N1CCC2(CC1)C(=O)N(C)C(=O)N2c1ccc(OCCN(C)C)cc1`, under 6.00; in that of `CN1C(=O)N(c2ccc3[nH]ncc3c2)C2(CCN(C(=O)C3(NC(=O)c4cc(C(F)(F)F)ccc4F)COC3)CC2)C1=O`, under 6.00.
Next, `Cc1cccc(C(=O)N[C@@H](C(=O)N2CCC3(CC2)C(=O)N(C)CN3c2cccc(C#N)c2)C(C)C)c1F`: under 6.00.

The record behind these values is ChEMBL document CHEMBL5726751, “Substituted spirocyclic inhibitors of autotaxin” (2019).
